System: 616215-338-R-J1-PDC spheroids with HUVEC/MSC, viability
Experiment: Anticancer human tumor 616215-338-R-J1-PDC patient-derived colon adenocarcinoma cell line growth inhibition [PI3K]
Conditions: for IC50: curve of first compound; for viability, T/C: stronger effect = lower value
In short: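 Targeted small molecules plus PI3K inhibitors, half-log dose series from Cmax (default top 10 microM), were applied to heterotypic spheroids of cancer cells with HUVEC and MSCs. Viability indicated growth inhibition.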

[1] = second compound 0.00316 µM, first compound 0.0316 µM
[2] = second compound 0.00316 µM, first compound 0.1 µM
[3] = second compound 0.00316 µM, first compound 0.316 µM
[4] = second compound 0.00316 µM, first compound 1 µM
[5] = second compound 0.00316 µM, first compound 3.16 µM
[6] = second compound 0.00316 µM, first compound 10 µM
[7] = second compound 0.01 µM, first compound 0.0316 µM
[8] = second compound 0.01 µM, first compound 0.1 µM
[9] = second compound 0.01 µM, first compound 0.316 µM
[10] = second compound 0.01 µM, first compound 1 µM
[11] = second compound 0.01 µM, first compound 3.16 µM
[12] = second compound 0.01 µM, first compound 10 µM
[13] = second compound 0.0316 µM, first compound 0.0316 µM
[14] = second compound 0.0316 µM, first compound 0.1 µM
[15] = second compound 0.0316 µM, first compound 0.316 µM
[16] = second compound 0.0316 µM, first compound 1 µM
[17] = second compound 0.0316 µM, first compound 3.16 µM
[18] = second compound 0.0316 µM, first compound 10 µM
[19] = second compound 0.1 µM, first compound 0.0316 µM
[20] = second compound 0.1 µM, first compound 0.1 µM
[21] = second compound 0.1 µM, first compound 0.316 µM
[22] = second compound 0.1 µM, first compound 1 µM
[23] = second compound 0.1 µM, first compound 3.16 µM
[24] = second compound 0.1 µM, first compound 10 µM
[25] = second compound 0.316 µM, first compound 0.0316 µM
[26] = second compound 0.316 µM, first compound 0.1 µM
[27] = second compound 0.316 µM, first compound 0.316 µM
[28] = second compound 0.316 µM, first compound 1 µM
[29] = second compound 0.316 µM, first compound 3.16 µM
[30] = second compound 0.316 µM, first compound 10 µM
[31] = second compound 1 µM, first compound 0.0316 µM
[32] = second compound 1 µM, first compound 0.1 µM
[33] = second compound 1 µM, first compound 0.316 µM
[34] = second compound 1 µM, first compound 1 µM
[35] = second compound 1 µM, first compound 3.16 µM
[36] = second compound 1 µM, first compound 10 µM
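Also: spheroids exposed to agents for seven days before the viability read.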

C#Cc1c(F)ccc2cc(O)cc(-c3ncc4c(N5CC6CCC(C5)N6)nc(OCC56CCCN5CC(F)C6)nc4c3F)c12 (stereo not drawn) + CC(Nc1ccc2c(c1)OCCn1cc(N3C(=O)OCC3C(F)F)nc1-2)C(N)=O
IC50 (second compound 0.00316 µM): > 10 µM | IC50 (second compound 0.01 µM): > 10 µM | IC50 (second compound 0.0316 µM): > 10 µM | IC50 (second compound 0.1 µM): > 10 µM | IC50 (second compound 0.316 µM): 6.86 µM | IC50 (second compound 1 µM): 7.1 µM | viability, T/C [1]: 102% | viability, T/C [2]: 79.6% | viability, T/C [3]: 111% | viability, T/C [4]: 100% | viability, T/C [5]: 90.5% | viability, T/C [6]: 74.6% | viability, T/C [7]: 90% | viability, T/C [8]: 94% | viability, T/C [9]: 102% | viability, T/C [10]: 95.7% | viability, T/C [11]: 98.2% | viability, T/C [12]: 62.2% | viability, T/C [13]: 96% | viability, T/C [14]: 95.4% | viability, T/C [15]: 106% | viability, T/C [16]: 99.7% | viability, T/C [17]: 81.8% | viability, T/C [18]: 62.6% | viability, T/C [19]: 101% | viability, T/C [20]: 100% | viability, T/C [21]: 101% | viability, T/C [22]: 83.1% | viability, T/C [23]: 79.7% | viability, T/C [24]: 52.8% | viability, T/C [25]: 100% | viability, T/C [26]: 96.5% | viability, T/C [27]: 95.9% | viability, T/C [28]: 87.2% | viability, T/C [29]: 71.4% | viability, T/C [30]: 39.5% | viability, T/C [31]: 95.3% | viability, T/C [32]: 84.2% | viability, T/C [33]: 90.1% | viability, T/C [34]: 86.9% | viability, T/C [35]: 67.5% | viability, T/C [36]: 42.6%

C=CC(=O)N1CCN(c2nc(=O)n(-c3c(C)ccnc3C(C)C)c3nc(-c4c(O)cccc4F)c(F)cc23)C(C)C1 (stereo not drawn) + CC(Nc1ccc2c(c1)OCCn1cc(N3C(=O)OCC3C(F)F)nc1-2)C(N)=O
IC50 (second compound 0.00316 µM): > 10 µM | IC50 (second compound 0.01 µM): > 10 µM | IC50 (second compound 0.0316 µM): > 10 µM | IC50 (second compound 0.1 µM): > 10 µM | IC50 (second compound 0.316 µM): > 10 µM | IC50 (second compound 1 µM): > 10 µM | viability, T/C [1]: 95.9% | viability, T/C [2]: 101% | viability, T/C [3]: 86.8% | viability, T/C [4]: 103% | viability, T/C [5]: 100% | viability, T/C [6]: 87.5% | viability, T/C [7]: 91.8% | viability, T/C [8]: 100% | viability, T/C [9]: 84.2% | viability, T/C [10]: 98.1% | viability, T/C [11]: 99.1% | viability, T/C [12]: 95.6% | viability, T/C [13]: 102% | viability, T/C [14]: 106% | viability, T/C [15]: 110% | viability, T/C [16]: 103% | viability, T/C [17]: 95.6% | viability, T/C [18]: 90.9% | viability, T/C [19]: 89.8% | viability, T/C [20]: 92.6% | viability, T/C [21]: 91.1% | viability, T/C [22]: 97.3% | viability, T/C [23]: 98% | viability, T/C [24]: 84.2% | viability, T/C [25]: 114% | viability, T/C [26]: 99.3% | viability, T/C [27]: 95.7% | viability, T/C [28]: 100% | viability, T/C [29]: 97.8% | viability, T/C [30]: 105% | viability, T/C [31]: 101% | viability, T/C [32]: 96.7% | viability, T/C [33]: 105% | viability, T/C [34]: 97.1% | viability, T/C [35]: 90.6% | viability, T/C [36]: 81.6%

CC(Cn1ccc(-c2ccc(C#N)c(Cl)c2)n1)NC(=O)c1cc(C(C)O)[nH]n1 (stereo not drawn) + CC(Nc1ccc2c(c1)OCCn1cc(N3C(=O)OCC3C(F)F)nc1-2)C(N)=O
IC50 (second compound 0.00316 µM): > 10 µM | IC50 (second compound 0.01 µM): > 10 µM | IC50 (second compound 0.0316 µM): > 10 µM | IC50 (second compound 0.1 µM): > 10 µM | IC50 (second compound 0.316 µM): > 10 µM | IC50 (second compound 1 µM): > 10 µM | viability, T/C [1]: 90.8% | viability, T/C [2]: 94% | viability, T/C [3]: 91.2% | viability, T/C [4]: 93.6% | viability, T/C [5]: 92.4% | viability, T/C [6]: 94.3% | viability, T/C [7]: 89.3% | viability, T/C [8]: 105% | viability, T/C [9]: 102% | viability, T/C [10]: 92.4% | viability, T/C [11]: 92.3% | viability, T/C [12]: 104% | viability, T/C [13]: 94.4% | viability, T/C [14]: 105% | viability, T/C [15]: 90.1% | viability, T/C [16]: 101% | viability, T/C [17]: 96.3% | viability, T/C [18]: 101% | viability, T/C [19]: 107% | viability, T/C [20]: 88% | viability, T/C [21]: 96.8% | viability, T/C [22]: 102% | viability, T/C [23]: 105% | viability, T/C [24]: 94.4% | viability, T/C [25]: 109% | viability, T/C [26]: 104% | viability, T/C [27]: 107% | viability, T/C [28]: 101% | viability, T/C [29]: 101% | viability, T/C [30]: 110% | viability, T/C [31]: 101% | viability, T/C [32]: 99.8% | viability, T/C [33]: 104% | viability, T/C [34]: 103% | viability, T/C [35]: 99.4% | viability, T/C [36]: 97.8%

CC1(C)CCC(Nc2ncc(C(F)(F)F)c(-c3c[nH]c4c(P(C)(C)=O)c(C#N)ccc34)n2)CN1 (stereo not drawn) + CC(Nc1ccc2c(c1)OCCn1cc(N3C(=O)OCC3C(F)F)nc1-2)C(N)=O
IC50 (second compound 0.00316 µM): 3.62 µM | IC50 (second compound 0.01 µM): 3.73 µM | IC50 (second compound 0.0316 µM): 3.54 µM | IC50 (second compound 0.1 µM): 3.84 µM | IC50 (second compound 0.316 µM): 1.63 µM | IC50 (second compound 1 µM): 1.39 µM | viability, T/C [1]: 50.4% | viability, T/C [2]: 55.4% | viability, T/C [3]: 56.4% | viability, T/C [4]: 61.7% | viability, T/C [5]: 59.1% | viability, T/C [6]: 0.47% | viability, T/C [7]: 53.6% | viability, T/C [8]: 54.3% | viability, T/C [9]: 58% | viability, T/C [10]: 64.8% | viability, T/C [11]: 61% | viability, T/C [12]: 0.42% | viability, T/C [13]: 58% | viability, T/C [14]: 49.4% | viability, T/C [15]: 71.4% | viability, T/C [16]: 52.2% | viability, T/C [17]: 55.4% | viability, T/C [18]: 2.25% | viability, T/C [19]: 66.7% | viability, T/C [20]: 59.5% | viability, T/C [21]: 53.2% | viability, T/C [22]: 59.4% | viability, T/C [23]: 60.4% | viability, T/C [24]: 2.28% | viability, T/C [25]: 49.8% | viability, T/C [26]: 45.8% | viability, T/C [27]: 59.5% | viability, T/C [28]: 71.9% | viability, T/C [29]: 41% | viability, T/C [30]: 0.25% | viability, T/C [31]: 49.6% | viability, T/C [32]: 54.3% | viability, T/C [33]: 64.7% | viability, T/C [34]: 62.2% | viability, T/C [35]: 30.8% | viability, T/C [36]: 1.17%

— PubChem BioAssay AID1963978 (Molecular Pharmacology Branch, DTP, NCI, 2024)
